Measurements as given in the NIST ThermoML archive (doi:10.1021/je7000667).

Test: xn = mol fraction of the nth substance listed
Conditions: Gas, Burnett expansion method

FC(C(F)(F)F)C(F)(F)F [1,1,1,2,3,3,3-heptafluoropropane] + FCF
Conditions	mass density [kg/m3]
390 K, 329.74 kPa, x2 = 0.5155	11.344
390 K, 356.74 kPa, x2 = 0.2648	15.716
390 K, 362.31 kPa, x2 = 0.7809	8.862
390 K, 451.27 kPa, x2 = 0.5155	15.65
390 K, 486.71 kPa, x2 = 0.2648	21.683
390 K, 496.17 kPa, x2 = 0.7809	12.226
390 K, 615.63 kPa, x2 = 0.5155	21.59
390 K, 661.34 kPa, x2 = 0.2648	29.916
390 K, 677.89 kPa, x2 = 0.7809	16.867
390 K, 836.32 kPa, x2 = 0.5155	29.786
390 K, 893.34 kPa, x2 = 0.2648	41.274
390 K, 922.76 kPa, x2 = 0.7809	23.271
390 K, 1129.5 kPa, x2 = 0.5155	41.093
390 K, 1196.7 kPa, x2 = 0.2648	56.943
390 K, 1249.8 kPa, x2 = 0.7809	32.105
390 K, 1513 kPa, x2 = 0.5155	56.692
390 K, 1584.8 kPa, x2 = 0.2648	78.563
390 K, 1679.1 kPa, x2 = 0.7809	44.251
390 K, 2003.7 kPa, x2 = 0.5155	78.212
390 K, 2065.6 kPa, x2 = 0.2648	108.39
390 K, 2236.4 kPa, x2 = 0.7809	61.05
390 K, 2613.6 kPa, x2 = 0.5155	107.901
390 K, 2634 kPa, x2 = 0.2648	149.541
390 K, 2940 kPa, x2 = 0.7809	84.226
390 K, 3260.4 kPa, x2 = 0.2648	206.316
390 K, 3338.4 kPa, x2 = 0.5155	148.86
410 K, 105.73 kPa, x2 = 0.2648	4.333
410 K, 106.47 kPa, x2 = 0.7809	2.443
410 K, 133.75 kPa, x2 = 0.5155	4.316
410 K, 145.48 kPa, x2 = 0.2648	5.979
410 K, 146.65 kPa, x2 = 0.7809	3.371
410 K, 184.04 kPa, x2 = 0.5155	5.954
410 K, 199.99 kPa, x2 = 0.2648	8.248
410 K, 201.86 kPa, x2 = 0.7809	4.651
410 K, 253.05 kPa, x2 = 0.5155	8.214
410 K, 274.54 kPa, x2 = 0.2648	11.38
410 K, 277.79 kPa, x2 = 0.7809	6.417
410 K, 347.32 kPa, x2 = 0.5155	11.332
410 K, 376.14 kPa, x2 = 0.2648	15.701
410 K, 381.49 kPa, x2 = 0.7809	8.853
410 K, 475.89 kPa, x2 = 0.5155	15.634
410 K, 513.94 kPa, x2 = 0.2648	21.661
410 K, 522.95 kPa, x2 = 0.7809	12.214
410 K, 650.2 kPa, x2 = 0.5155	21.568
410 K, 699.84 kPa, x2 = 0.2648	29.885
410 K, 715.45 kPa, x2 = 0.7809	16.85
410 K, 885.1 kPa, x2 = 0.5155	29.756
410 K, 948.18 kPa, x2 = 0.2648	41.232
410 K, 975.71 kPa, x2 = 0.7809	23.247
410 K, 1199.1 kPa, x2 = 0.5155	41.051
410 K, 1275.5 kPa, x2 = 0.2648	56.886
410 K, 1325.1 kPa, x2 = 0.7809	32.073
410 K, 1613 kPa, x2 = 0.5155	56.634
410 K, 1699.6 kPa, x2 = 0.2648	78.483
410 K, 1786.7 kPa, x2 = 0.7809	44.206
410 K, 2149.2 kPa, x2 = 0.5155	78.132
410 K, 2235 kPa, x2 = 0.2648	108.28
410 K, 2392.4 kPa, x2 = 0.7809	60.988
410 K, 2828 kPa, x2 = 0.5155	107.791
410 K, 2887.1 kPa, x2 = 0.2648	149.389
410 K, 3168.3 kPa, x2 = 0.7809	84.141
410 K, 3641.6 kPa, x2 = 0.2648	206.107
410 K, 3658.2 kPa, x2 = 0.5155	148.709
